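Where inhibition never reached the appropriate level, the endpoint shown equals the highest concentration tested. Otherwise, values were interpolated linearly from a five-concentration, 48-hour dose response in 96-well plates. Here, GI50 denotes the concentration required for 50% inhibition of growth.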 Activity calls are given as the source filed them. No stated cut-off is given here; in the data, active = GI50 up to about 1.1 µM and inactive = higher.
Assays:
Experiment in all cases: growth of human tumour cells (NCI), 48 h
A498 = test system: A498
ACHN = test system: ACHN
CAKI-1 = test system: CAKI-1
HL-60 = test system: HL-60
HT-29 = test system: HT-29
IGROV-1 = test system: IGROV-1
MOLT-4 = test system: MOLT-4
NCI-H23 = test system: NCI-H23
NCI/ADR-RES = test system: NCI/ADR-RES
OVCAR-5 = test system: OVCAR-5
PC-3 = test system: PC-3
RPMI-8226 = test system: RPMI-8226
SF-268 = test system: SF-268
SF-295 = test system: SF-295
SK-MEL-2 = test system: SK-MEL-2
SK-MEL-5 = test system: SK-MEL-5
SK-OV-3 = test system: SK-OV-3
U-251 = test system: U-251
UACC-257 = test system: UACC-257
UACC-62 = test system: UACC-62

Measured: GI50

NS(=O)(=O)c1cc(C(=O)O)c(Cl)c([N+](=O)[O-])c1Cl
inactive: A498 > 100 µM | ACHN > 100 µM | CAKI-1 > 100 µM | HL-60 > 100 µM | HT-29 > 100 µM | IGROV-1 > 100 µM | MOLT-4 > 100 µM | NCI-H23 > 100 µM | NCI/ADR-RES > 100 µM | OVCAR-5 > 100 µM | PC-3 > 100 µM | RPMI-8226 > 100 µM | SF-268 > 100 µM | SF-295 > 100 µM | SK-MEL-2 > 100 µM | SK-MEL-5 > 100 µM | SK-OV-3 > 100 µM | U-251 > 100 µM | UACC-257 > 100 µM | UACC-62 > 100 µM

CCSc1c2cc(OC)ccc2nc2ccc(OC)cc12
inactive: A498 9.4 µM | ACHN 18.6 µM | CAKI-1 9.27 µM | HL-60 2.62 µM | HT-29 17.8 µM | IGROV-1 18.3 µM | MOLT-4 3.22 µM | NCI-H23 9.44 µM | NCI/ADR-RES 12.1 µM | OVCAR-5 8.09 µM | PC-3 10.7 µM | RPMI-8226 4.24 µM | SF-268 10.9 µM | SF-295 22.4 µM | SK-MEL-2 18.8 µM | SK-MEL-5 6.65 µM | SK-OV-3 23.3 µM | U-251 12.5 µM | UACC-257 9.98 µM | UACC-62 10.9 µM

COC(=O)c1c(C)[nH]c2c1cc(O)c1nc(C)c(C)nc12
inactive: A498 14.8 µM | ACHN 35.5 µM | CAKI-1 > 100 µM | HL-60 5.77 µM | HT-29 > 100 µM | IGROV-1 > 100 µM | MOLT-4 > 100 µM | NCI-H23 49.4 µM | NCI/ADR-RES > 100 µM | OVCAR-5 76.7 µM | PC-3 23.2 µM | RPMI-8226 > 100 µM | SF-268 49.2 µM | SF-295 23.6 µM | SK-MEL-2 33 µM | SK-MEL-5 48.5 µM | SK-OV-3 70 µM | U-251 60.3 µM | UACC-257 > 100 µM | UACC-62 43 µM

O=C(/C=C/c1ccc2c(c1)OCO2)Cc1nc2ccccc2[nH]c1=O
inactive: A498 20.3 µM | ACHN 13.6 µM | CAKI-1 16.8 µM | HL-60 44.3 µM | HT-29 28.5 µM | IGROV-1 21 µM | MOLT-4 38.9 µM | NCI-H23 29.8 µM | NCI/ADR-RES 22.1 µM | OVCAR-5 22.9 µM | PC-3 23.2 µM | RPMI-8226 28.1 µM | SF-268 18.4 µM | SF-295 17.4 µM | SK-MEL-2 22 µM | SK-MEL-5 32.6 µM | SK-OV-3 18.6 µM | U-251 16.8 µM | UACC-257 25.4 µM | UACC-62 6.76 µM

CN(Cc1cnc2nc(N)nc(N)c2n1)c1ccc(C(=O)NC(CCC(=O)NCCC(P(=O)(O)O)P(=O)(O)O)C(=O)O)cc1 (stereo not given)
inactive: A498 78 µM | ACHN 11.5 µM | CAKI-1 > 25 µM | HL-60 4.12 µM | HT-29 6 µM | IGROV-1 35.2 µM | MOLT-4 6.5 µM | NCI-H23 24.5 µM | NCI/ADR-RES 21.5 µM | OVCAR-5 25.1 µM | PC-3 1.79 µM | RPMI-8226 6.85 µM | SF-268 14.2 µM | SF-295 18.7 µM | SK-MEL-2 > 49.5 µM | SK-MEL-5 43.4 µM | SK-OV-3 1.13 µM | U-251 25.9 µM | UACC-257 > 100 µM | UACC-62 28.4 µM

Reference: ChEMBL document CHEMBL1201862, “PubChem BioAssay data set” (2004)
